Data reported in PubChem BioAssay AID2060500 (Molecular Pharmacology Branch, DTP, NCI, 2025).

Test system: 596521-263-R-J1-PDC complex spheroids, viability % of control
Test: Anticancer human tumor 596521-263-R-J1-PDC patient-derived soft tissue sarcoma cell line growth inhibition [GQUAD]
Conditions: for IC50: curve of first compound; for viability, T/C: stronger effect = lower value
Procedure, shortened: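 Tumor cells were grown as complex spheroids with HUVEC endothelial cells and mesenchymal stem cells as stroma. G-quadruplex stabilizers were combined with targeted agents over half-log dilutions from near the clinical Cmax, or from 10 microM.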

[1] = second compound 0.0316 µM, first compound 0.0316 µM
[2] = second compound 0.0316 µM, first compound 0.1 µM
[3] = second compound 0.0316 µM, first compound 0.316 µM
[4] = second compound 0.0316 µM, first compound 1 µM
[5] = second compound 0.0316 µM, first compound 3.16 µM
[6] = second compound 0.0316 µM, first compound 10 µM
[7] = second compound 0.1 µM, first compound 0.0316 µM
[8] = second compound 0.1 µM, first compound 0.1 µM
[9] = second compound 0.1 µM, first compound 0.316 µM
[10] = second compound 0.1 µM, first compound 1 µM
[11] = second compound 0.1 µM, first compound 3.16 µM
[12] = second compound 0.1 µM, first compound 10 µM
[13] = second compound 0.316 µM, first compound 0.0316 µM
[14] = second compound 0.316 µM, first compound 0.1 µM
[15] = second compound 0.316 µM, first compound 0.316 µM
[16] = second compound 0.316 µM, first compound 1 µM
[17] = second compound 0.316 µM, first compound 3.16 µM
[18] = second compound 0.316 µM, first compound 10 µM
[19] = second compound 1 µM, first compound 0.0316 µM
[20] = second compound 1 µM, first compound 0.1 µM
[21] = second compound 1 µM, first compound 0.316 µM
[22] = second compound 1 µM, first compound 1 µM
[23] = second compound 1 µM, first compound 3.16 µM
[24] = second compound 1 µM, first compound 10 µM
[25] = second compound 3.16 µM, first compound 0.0316 µM
[26] = second compound 3.16 µM, first compound 0.1 µM
[27] = second compound 3.16 µM, first compound 0.316 µM
[28] = second compound 3.16 µM, first compound 1 µM
[29] = second compound 3.16 µM, first compound 3.16 µM
[30] = second compound 3.16 µM, first compound 10 µM
[31] = second compound 10 µM, first compound 0.0316 µM
[32] = second compound 10 µM, first compound 0.1 µM
[33] = second compound 10 µM, first compound 0.316 µM
[34] = second compound 10 µM, first compound 1 µM
[35] = second compound 10 µM, first compound 3.16 µM
[36] = second compound 10 µM, first compound 10 µM
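Further: spheroids exposed to drugs for 7 days before viability reading.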
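Wherever viability, T/C is given: 100% = DMSO vehicle control viability.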

With O=C(NO)c1cnc(N2CCN(S(=O)(=O)c3ccc4ccccc4c3)CC2)nc1 + CN(C)c1ccc(Nc2c3ccc(NC(=O)CCN4CCCC4)cc3nc3cc(NC(=O)CCN4CCCC4)ccc23)cc1 the IC50 (second compound 0.0316 µM) was 112 nM, the IC50 (second compound 0.1 µM) was 97.3 nM and the IC50 (second compound 0.316 µM) was 126 nM. For the same compound, the IC50 (second compound 1 µM) was 112 nM, the IC50 (second compound 3.16 µM) was 76.9 nM and the IC50 (second compound 10 µM) was < 31.6 nM. The viability, T/C [1] was 77.3%, the viability, T/C [2] was 54.4% and the viability, T/C [3] was 7.95%. It also gave a viability, T/C [4] of 0.72%, a viability, T/C [5] of 0.35% and a viability, T/C [6] of 0.33%. For the same compound, the viability, T/C [7] was 76.3%, the viability, T/C [8] was 49.4% and the viability, T/C [9] was 9.87%. The viability, T/C [10] was 0.62%, the viability, T/C [11] was 0.38% and the viability, T/C [12] was 0.34%. It also gave a viability, T/C [13] of 76.5%, a viability, T/C [14] of 60.9% and a viability, T/C [15] of 7.1%. For the same compound, the viability, T/C [16] was 0.61%, the viability, T/C [17] was 0.29% and the viability, T/C [18] was 0.34%. The viability, T/C [19] was 74.4%, the viability, T/C [20] was 54.7% and the viability, T/C [21] was 7.49%. For the same compound, the viability, T/C [22] was 0.53%, the viability, T/C [23] was 0.35% and the viability, T/C [24] was 1.39%. The viability, T/C [25] was 65.4%, the viability, T/C [26] was 45.4% and the viability, T/C [27] was 7.07%. The viability, T/C [28] was 0.61%, the viability, T/C [29] was 0.37% and the viability, T/C [30] was 0.78%. It also gave a viability, T/C [31] of 48.2%, a viability, T/C [32] of 35.6% and a viability, T/C [33] of 3.88%. It also gave a viability, T/C [34] of 0.37%, a viability, T/C [35] of 0.37% and a viability, T/C [36] of 0.34%.

In the case of COc1ccc([C@@H](O)c2cc(-c3ncnc4cc(N5CCOCC5)ccc34)c(F)cc2Cl)nn1 + Cc1[nH]c2ccc(F)cc2c1-c1nc2c3cccnc3c3ncccc3c2[nH]1, the IC50 (second compound 0.0316 µM) is reported as > 10000 nM, the IC50 (second compound 0.1 µM) is reported as > 10000 nM and the IC50 (second compound 0.316 µM) is reported as > 10000 nM. For the same compound, the IC50 (second compound 1 µM) was > 10000 nM, the IC50 (second compound 3.16 µM) was > 10000 nM and the IC50 (second compound 10 µM) was 6140 nM. It also gave a viability, T/C [1] of 96.5%, a viability, T/C [2] of 89% and a viability, T/C [3] of 94.6%. For the same compound, the viability, T/C [4] was 77.9%, the viability, T/C [5] was 69.3% and the viability, T/C [6] was 52%. The viability, T/C [7] was 98.6%, the viability, T/C [8] was 89.1% and the viability, T/C [9] was 97.7%. For the same compound, the viability, T/C [10] was 77.5%, the viability, T/C [11] was 64.7% and the viability, T/C [12] was 55.4%. For the same compound, the viability, T/C [13] was 94.2%, the viability, T/C [14] was 105% and the viability, T/C [15] was 95.9%. For the same compound, the viability, T/C [16] was 89.6%, the viability, T/C [17] was 72.2% and the viability, T/C [18] was 56.5%. It also gave a viability, T/C [19] of 94.7%, a viability, T/C [20] of 93.8% and a viability, T/C [21] of 95.8%. For the same compound, the viability, T/C [22] was 81.2%, the viability, T/C [23] was 69.1% and the viability, T/C [24] was 50.3%. It also gave a viability, T/C [25] of 89.1%, a viability, T/C [26] of 90.9% and a viability, T/C [27] of 83%. It also gave a viability, T/C [28] of 71.3%, a viability, T/C [29] of 64.5% and a viability, T/C [30] of 50.3%. The viability, T/C [31] was 92.2%, the viability, T/C [32] was 87.7% and the viability, T/C [33] was 82%. For the same compound, the viability, T/C [34] was 68.8%, the viability, T/C [35] was 61.7% and the viability, T/C [36] was 42.4%.
